Source: paper PMC3764026, “Adaptive Evolution of Escherichia coli to an α-Peptide/β-Peptoid Peptidomimetic Induces Stable Resistance” (PLoS ONE, 2013)
Values after ≈ are worked out from the molar mass of the structure shown. Where two headings read alike, the source gives them in different places. Positions of bridges follow the written chain, without caps; N, C: chain ends. Non-standard residues stand in square brackets, D forms with d. Residues, ends and D or L forms follow the SMILES beside them. *: point of attachment. X1 = CC[C@H](C)CCCCC(=O)*; Dab = NCC[C@H](N)C(=O)O

Legend:
[1] = tested on: isolates from peptidomimetic 1-exposed E. coli ATCC 25922 lineages; settings: for change in MIC following acquisition of peptidomimetic resistance: isolate 2–7 vs wild type, biological duplicates; for cross-resistance: MIC as compared to the wild type: all twenty isolates from lineages no. 2 and 5, KR-12, IsCTp, melittin, PEP-1-K in 1% peptone instead of MHB
Description: (§1) Continuous selection of resistance was performed for peptidomimetic 1 (Figure 1) and for the clinically relevant natural antimicrobial peptide, polymyxin B. A bacterial suspension of a single colony of E. coli ATCC 25922 was re-inoculated (10 µl) five times in unsupplemented MHB (990 µl). It was then re-inoculated in MHB supplemented with peptidomimetic 1 (ten lineages) or polymyxin B (ten lineages), and after ten re-inoculations at constant peptidomimetic or polymyxin B concentration, the concentrations were doubled. […] Four lineages grown in MHB with MilliQ water were included as control. Re-inoculations were performed twice a day, but were reduced to once a day when growth was slower as assessed by turbidity of the cultures. The total number of passages (supplemented with peptidomimetic/AMP) was 77 times equivalent to approx. 500 generations. For each increase in concentration the lineages were preserved as freezing stocks. Ten colony isolates were randomly selected from each lineage population at 32×MIC and preserved as freezing stocks.
MIC was determined by using the micro-dilution method according to guidelines of the Clinical and Laboratory Standards Institute. Peptidomimetic 1 and erythromycin 1∶2 serial dilutions were prepared from 1024 µg/mL stock solutions to give a final range of 512-0.5 µg/mL in the wells. Ampicillin 1∶2 serial dilutions were prepared from a 256 µg/mL stock solution to give a final range of 128-0.13 µg/mL in the wells. Polymyxin B and gentamicin 1∶2 serial dilutions were prepared from a 64 µg/mL stock solution to give a final range of 32-0.03 µg/mL in the wells.
The population lineages were tested for their susceptibility towards peptidomimetic 1, polymyxin B, gentamicin and ampicillin. Single-culture isolates selected from these populations were additionally tested against peptidomimetic 1, polymyxin B, erythromycin and the five reference AMPs. To estimate the level of cross-resistance to closely related peptidomimetics, MIC determinations were performed for peptidomimetics 2 and 3 (Figure 1) towards selected isolates. The bacterial suspensions were grown overnight in MHB at 37°C for determination of the population MIC, or individual isolates were grown overnight on non-selective BHI agar at 37°C. […] In all experiments, bacterial cells were suspended in 0.9% saline to give a turbidity of 0.13 at OD546 (approximately 1×10^8 CFU/mL) and diluted in MHB pH 7.4 to a final concentration of 5×10^5 CFU/mL in each well. Polypropylene plates (Nunc 442587) were used to minimize peptide binding, and the incubation time was 18–20 hours at 37°C. […] MIC was found in a minimum of two technical (population MIC) or biological (isolate MIC) replicates as the lowest concentration of the AMP or antibiotic where no visible growth was observed.

[2] = tested on: Escherichia coli ATCC 25922; type: cell-based; settings: wild-type E. coli ATCC 25922; MHB pH 7.4, 5×10^5 CFU/mL, 37°C, 18–20 h
Description: All experiments were performed with Escherichia coli ATCC 25922. Stock cultures of the wild-type strain and lineage isolates were stored at –80°C in 4% (w/v) glycerol, 0.5% (w/v) glucose, 2% (w/v) skimmed milk powder and 3% (w/v) tryptone soy powder. Lineage populations were frozen at –80°C in 50% (w/v) glycerol. All experiments were performed at 37°C. Experiments were carried out in cation-adjusted Mueller Hinton II broth (MHB) (Becton Dickinson 212322) adjusted to pH 7.4 or in 1% (w/v) peptone (Becton Dickinson 211677) for MIC determination of natural AMPs. Brain Heart Infusion (BHI) (CM1135) with agar (VWR 20768.292) 1.5% as gelling agent was used throughout for colony plating.
(§2) MIC was determined by using the micro-dilution method according to guidelines of the Clinical and Laboratory Standards Institute. Peptidomimetic 1 and erythromycin 1∶2 serial dilutions were prepared from 1024 µg/mL stock solutions to give a final range of 512-0.5 µg/mL in the wells. Ampicillin 1∶2 serial dilutions were prepared from a 256 µg/mL stock solution to give a final range of 128-0.13 µg/mL in the wells. Polymyxin B and gentamicin 1∶2 serial dilutions were prepared from a 64 µg/mL stock solution to give a final range of 32-0.03 µg/mL in the wells. Also, 1∶2 serial dilutions of the AMPs KR-12, IsCTp, melittin and PEP-1-K were prepared from 64 µg/mL stock solutions to give a final range of 32-0.03 µg/mL in the wells; however this was performed in 1% peptone instead of in MHB since activity was drastically diminished in the latter (not shown).
The population lineages were tested for their susceptibility towards peptidomimetic 1, polymyxin B, gentamicin and ampicillin. Single-culture isolates selected from these populations were additionally tested against peptidomimetic 1, polymyxin B, erythromycin and the five reference AMPs. To estimate the level of cross-resistance to closely related peptidomimetics, MIC determinations were performed for peptidomimetics 2 and 3 (Figure 1) towards selected isolates. […]

[3] = tested on: Escherichia coli ATCC 25922; experiment: Continuous selection experiment; type: cell-based
Description: as §1

[4] = tested on: E. coli ATCC 25922 lineages adapted to peptidomimetic 1; type: cell-based, Escherichia coli; settings: for cross-resistance to conventional antibiotics: any of the lineages (peptidomimetic- and polymyxin B-exposed), population MIC, data not shown
Description: as §1, §2
(§3) The population lineages were tested for their susceptibility towards peptidomimetic 1, polymyxin B, gentamicin and ampicillin. Single-culture isolates selected from these populations were additionally tested against peptidomimetic 1, polymyxin B, erythromycin and the five reference AMPs. To estimate the level of cross-resistance to closely related peptidomimetics, MIC determinations were performed for peptidomimetics 2 and 3 (Figure 1) towards selected isolates. The bacterial suspensions were grown overnight in MHB at 37°C for determination of the population MIC, or individual isolates were grown overnight on non-selective BHI agar at 37°C. […] In all experiments, bacterial cells were suspended in 0.9% saline to give a turbidity of 0.13 at OD546 (approximately 1×10^8 CFU/mL) and diluted in MHB pH 7.4 to a final concentration of 5×10^5 CFU/mL in each well. Polypropylene plates (Nunc 442587) were used to minimize peptide binding, and the incubation time was 18–20 hours at 37°C. Incubation time was additionally extended up to 44 hours for the individual isolates due to a potential effect of growth rate on the outcome, but no effect was seen of this (not shown). MIC was found in a minimum of two technical (population MIC) or biological (isolate MIC) replicates as the lowest concentration of the AMP or antibiotic where no visible growth was observed.
(§4) Frozen stocks were reconditioned in unsupplemented MHB media for five transfers (∼35 generations) at 37°C. The heritability of resistance was established through MIC determination of bacterial populations as described above.

[5] = tested on: E. coli ATCC 25922 lineages adapted to polymyxin B; type: cell-based, Escherichia coli; settings: for MIC against polymyxin after 35 generations w/o selection / MIC against polymyxin after selection: two technical duplicates; for MIC against polymyxin after selection: MHB pH 7.4, 37°C, 18–20 h
Description: as §1, §2, §3, §4

[6] = tested on: E. coli ATCC 25922 control lineages; type: cell-based, Escherichia coli; settings: two technical duplicates
Description: as §1, §2, §3, §4

[7] = the three most resistant isolates from lineage no. 2

lysozyme
change in MIC following acquisition of peptidomimetic resistance [1]: No changes

CC[C@H]1OC(=O)[C@H](C)[C@@H](O[C@H]2C[C@@](C)(OC)[C@@H](O)[C@H](C)O2)[C@H](C)[C@@H](O[C@@H]2O[C@H](C)C[C@H](N(C)C)[C@H]2O)[C@](C)(O)C[C@@H](C)C(=O)[C@H](C)[C@@H](O)[C@]1(C)O [erythromycin, reference compound]
change in susceptibility as compared to the wild type ([1]; the five highly resistant isolates of lineage no. 2 carrying the macrolide transporter mutation, not shown): No change

OO [hydrogen peroxide, reference compound]
change in MIC following acquisition of peptidomimetic resistance [1]: No changes

CC(=O)N[C@@H](CCCCNC(=N)N)C(=O)N(CCC(=O)N[C@@H](CCCCNC(=N)N)C(=O)N(CCC(=O)N[C@@H](CCCCNC(=N)N)C(=O)N(CCC(=O)N[C@@H](CCCCNC(=N)N)C(=O)N(CCC(=O)N[C@@H](CCCCNC(=N)N)C(=O)N(CCC(=O)N[C@@H](CCCCNC(=N)N)C(=O)N(CCC(N)=O)Cc1ccccc1)Cc1ccccc1)Cc1ccccc1)Cc1ccccc1)Cc1ccccc1)Cc1ccccc1 [peptidomimetic 3]
MIC [1, 7]: 32 µg/mL (≈ 15.6 µM) | MIC levels higher than seen for the wild type strain [1, 7]: 8 times | wt MIC [2]: 4 µg/mL

melittin [melitin, reference compound]
cross-resistance: MIC as compared to the wild type ([1]; not shown): did not find increased MIC values

CC[C@H](C)CCCCC(=O)N[C@@H](CCN)C(=O)N[C@H](C(=O)N[C@@H](CCN)C(=O)N[C@H]1CCNC(=O)[C@H]([C@@H](C)O)NC(=O)[C@H](CCN)NC(=O)[C@H](CCN)NC(=O)[C@H](CC(C)C)NC(=O)[C@@H](Cc2ccccc2)NC(=O)[C@H](CCN)NC1=O)[C@@H](C)O [polymyxin B, Polymyxin B] (X1-[Dab]T[Dab][Dab][Dab][dF]L[Dab][Dab]T; lactam 4-C (inferred); N-terminus assumed)
cross-resistance: MIC as compared to the wild type ([1]; not shown): did not find increased MIC values | lineages that eventually grew at 32×wt MIC ([3]; ten lineages per agent, from 1/16×wt MIC, doubled stepwise, 77 inoculations, approx. 500 generations, 32×wt MIC = 256 µg/mL peptidomimetic 1, 32 µg/mL polymyxin B): eight out of ten | growth of unexposed control lineages at 4×wt MIC ([3]; two controls per agent, 32 µg/mL peptidomimetic 1 or 4 µg/mL polymyxin B): one of the two controls | cross-resistance after removal of the selection pressure ([4]; peptidomimetic-exposed lineages, ~35 generations unsupplemented, became similar to controls, not shown): lost | MIC against polymyxin after 35 generations w/o selection ([5]; polymyxin B-exposed lineage 2, five passages in unsupplemented MHB): 32 µg/mL (≈ 26.6 µM) | MIC against polymyxin after selection ([5]; polymyxin B-exposed lineage 2, population outgrown at 32×wt MIC): 32 µg/mL (≈ 26.6 µM) | MIC against polymyxin after 35 generations w/o selection ([5]; polymyxin B-exposed lineage 3, five passages in unsupplemented MHB): 32 µg/mL (≈ 26.6 µM) | MIC against polymyxin after selection ([5]; polymyxin B-exposed lineage 3, population outgrown at 32×wt MIC): 32 µg/mL (≈ 26.6 µM) | MIC against polymyxin after 35 generations w/o selection ([5]; polymyxin B-exposed lineage 4, five passages in unsupplemented MHB): 32 µg/mL (≈ 26.6 µM) | MIC against polymyxin after selection ([5]; polymyxin B-exposed lineage 4, population outgrown at 32×wt MIC): 32 µg/mL (≈ 26.6 µM) | MIC against polymyxin after 35 generations w/o selection ([5]; polymyxin B-exposed lineage 5, five passages in unsupplemented MHB): 32 µg/mL (≈ 26.6 µM) | MIC against polymyxin after selection ([5]; polymyxin B-exposed lineage 5, population outgrown at 32×wt MIC): 32 µg/mL (≈ 26.6 µM) | MIC against polymyxin after 35 generations w/o selection ([5]; polymyxin B-exposed lineage 6, five passages in unsupplemented MHB): 32 µg/mL (≈ 26.6 µM) | MIC against polymyxin after selection ([5]; polymyxin B-exposed lineage 6, population outgrown at 32×wt MIC): 32 µg/mL (≈ 26.6 µM) | MIC against polymyxin after 35 generations w/o selection ([5]; polymyxin B-exposed lineage 8, five passages in unsupplemented MHB): 32 µg/mL (≈ 26.6 µM) | MIC against polymyxin after selection ([5]; polymyxin B-exposed lineage 8, population outgrown at 32×wt MIC): 32 µg/mL (≈ 26.6 µM) | MIC against polymyxin after 35 generations w/o selection ([5]; polymyxin B-exposed lineage 9, five passages in unsupplemented MHB): 32 µg/mL (≈ 26.6 µM) | MIC against polymyxin after selection ([5]; polymyxin B-exposed lineage 9, population outgrown at 32×wt MIC): 32 µg/mL (≈ 26.6 µM) | MIC against polymyxin after 35 generations w/o selection ([5]; polymyxin B-exposed lineage 10, five passages in unsupplemented MHB): 32 µg/mL (≈ 26.6 µM) | MIC against polymyxin after selection ([5]; polymyxin B-exposed lineage 10, population outgrown at 32×wt MIC): 32 µg/mL (≈ 26.6 µM) | increase in MIC as compared to the wild-type strain ([5]; the eight polymyxin B-exposed lineages after selection): 32 fold | MIC against polymyxin after 35 generations w/o selection ([6]; Control 1 lineage (MilliQ water)): 0.5 µg/mL (≈ 0.415 µM) | MIC against polymyxin after selection ([6]; Control 1 lineage (MilliQ water, no polymyxin)): 8 µg/mL (≈ 6.65 µM) | MIC against polymyxin after 35 generations w/o selection ([6]; Control 2 lineage (MilliQ water)): 0.5 to 1 µg/mL | MIC against polymyxin after selection ([6]; Control 2 lineage (MilliQ water, no polymyxin)): 1 µg/mL (≈ 0.831 µM)

CC1(C)S[C@@H]2[C@H](NC(=O)[C@H](N)c3ccccc3)C(=O)N2[C@H]1C(=O)O [ampicillin, reference compound]
cross-resistance to conventional antibiotics [4]: No cross-resistance

protamine [reference compound]
cross-resistance: MIC as compared to the wild type ([1]; not shown): did not find increased MIC values

CNC(C)C1CCC(N)C(OC2C(N)CC(N)C(OC3OCC(C)(O)C(NC)C3O)C2O)O1 (centres unmarked) [gentamicin, reference compound]
cross-resistance to conventional antibiotics [4]: No cross-resistance
